Patent publication US20040224995A1 (University of North Texas Health Science Center at Fort …, priority 2003, published 2004)

Assays:
[1] = Middle cerebral artery occlusion (MCAO) in ovariectomized female rats; type: in vivo, rat; details: rats, doses given prior to MCA occlusion
From the text: (§1) Evaluating the role of cyclopentenone PGs and TZD's has also been completed in vivo. […] Troglitazone reduced the resulting infarct size by about 50% compared to vehicle (corn oil treated animals). This effective protection from a transient focal ischemic event by troglitazone argues that selective PPARγ agonists may be useful neuroprotectants during neurodegenerative events (e.g. stroke).
(§2) As shown below, the results from our experiments comprise results that indicate potent neuroprotective TZD's, as were used in neuronal cell lines are also effective in an animal model. Although not wanting to be bound by theory, the rat is the appropriate animal model for assessing the effects of drugs on neuronal damage, as the compounds to be evaluated are intended for use in humans. […] Female Sprague Dawley rats were purchased from Harlan in Indianapolis, Ind. Rats were housed in pairs in hanging, stainless steel cages in a temperature-controlled rooms (25±1° C.) with a daily light cycle (on from 0700 to 1900 h daily). All rats were allowed free access to laboratory chow and tap water. All procedures performed on animals will were reviewed and approved by the University of North Texas Health Science Center Institutional Animal Care and Use Committee (“ACUC”).
(§3) The female Sprague Dawley rats (225-250 g BW) were bilaterally ovariectomized using a dorsal approach. Animals were anesthetized with ketamine ([…]) and xylazine (10 mg/kg). A small (1 cm) cut was made through the skin, fascia, and muscle. […] Percent ischemic lesion area was calculated. * indicates p<0.05 vs. respective control group. […]
(§4) Each group of animals was decapitated 24 h after MCAO. […] Slices were then fixed in a 10% formalin and photographed by a digital camera (Sony MVC-FD5), and the ischemic lesion area were determined for each slice using the Image-Pro Plus software (Media Cybernectics, Silver Spring, Md.). Percent ischemic lesion area was calculated as the sum of the ischemic lesion area for the five slices divided by the total cross sectional area of these five slices.

[2] = tested on: ischemic lesion after MCAO; assay: as above; type: in vivo, rat
From the text: as §1, §2, §3, §4

Question: What does the source list for Cc1c(C)c2c(c(C)c1O)CCC(C)(COc1ccc(CC3SC(=O)NC3=O)cc1)O2 (stereo not drawn) [troglitazone]?
Answer: brain concentrations [1]: about 7 μM; reduction of infarct size compared to vehicle ([2]; rats treated prior to MCA occlusion, vehicle corn oil): about 50%; reduction of ischemic lesion area compared to control animals ([2]; s.c. injection 12 h and 2 h before MCAO, 60 min occlusion, 24 h reperfusion): about 50%
